Data on one compound can be found in US7669997B2, “Ink-jet textile printing method” (Konica Minolta Holdings, Inc., priority 2004, dated 2010).

The data set in a line: pKa (acid dissociation constant) of dispersing agents and acids. The settings on record: acid of pretreatment solution. It is filed as physicochemical. An excerpt:
The pKa value, as described in the present invention, is also called an acid dissociation constant, which is detailed, for example, in Buichi Sakaguchi and Keihei Ueno, Kinzoku Chelates [III] (Metal Chelates [III]), Nanko Do, which describes pKa values of acidic dissociating groups. Further, it is possible to determine the pKa of compounds, which are not described in the above reference, employing conventional methods. For example, it is possible to determine the pKa employing the method described, for example, in Jikken Kagaku Koza 5 Netsuteki Sokutei oyobi Heiko (Experimental Chemistry Lecture 5 Thermal Measurements and Equilibrium) page 460, edited by Nihon Kagaku Kai, Maruzen Co., Ltd.

One may read the pKa as the pH at which an ionisable group is half protonated. Regarding `O=C(O)/C=C\C(=O)O` [maleic acid], the pKa reads like this: (first listed pKa value) below 2; (second listed pKa value) 5.8.
